System: VA-ES-BJ tumor spheroid viability
Assay: Anticancer human tumor VA-ES-BJ cell line growth inhibition;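 also: spheroids exposed to compounds for seven days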;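 as to viability, T/C: percent of DMSO vehicle control viability so 100% = untreated growth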
Details: spheroids with HUVEC and MSC; for IC50: curve of first compound; for viability, T/C: stronger effect = lower value
In short: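 Complex spheroids of malignant cells with endothelial cells and mesenchymal stem cells; agents alone or combined, from near clinical Cmax (or 10 microM if unknown) down in half-log steps, 0.25% DMSO final.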

[1] = second compound 30 pM, first compound 0.00949 µM
[2] = second compound 30 pM, first compound 0.03 µM
[3] = second compound 30 pM, first compound 0.0949 µM
[4] = second compound 30 pM, first compound 0.3 µM
[5] = second compound 30 pM, first compound 0.949 µM
[6] = second compound 30 pM, first compound 3 µM
[7] = second compound 94.9 pM, first compound 0.00949 µM
[8] = second compound 94.9 pM, first compound 0.03 µM
[9] = second compound 94.9 pM, first compound 0.0949 µM
[10] = second compound 94.9 pM, first compound 0.3 µM
[11] = second compound 94.9 pM, first compound 0.949 µM
[12] = second compound 94.9 pM, first compound 3 µM
[13] = second compound 0.0003 µM, first compound 0.00949 µM
[14] = second compound 0.0003 µM, first compound 0.03 µM
[15] = second compound 0.0003 µM, first compound 0.0949 µM
[16] = second compound 0.0003 µM, first compound 0.3 µM
[17] = second compound 0.0003 µM, first compound 0.949 µM
[18] = second compound 0.0003 µM, first compound 3 µM
[19] = second compound 0.000949 µM, first compound 0.00949 µM
[20] = second compound 0.000949 µM, first compound 0.03 µM
[21] = second compound 0.000949 µM, first compound 0.0949 µM
[22] = second compound 0.000949 µM, first compound 0.3 µM
[23] = second compound 0.000949 µM, first compound 0.949 µM
[24] = second compound 0.000949 µM, first compound 3 µM
[25] = second compound 0.003 µM, first compound 0.00949 µM
[26] = second compound 0.003 µM, first compound 0.03 µM
[27] = second compound 0.003 µM, first compound 0.0949 µM
[28] = second compound 0.003 µM, first compound 0.3 µM
[29] = second compound 0.003 µM, first compound 0.949 µM
[30] = second compound 0.003 µM, first compound 3 µM

SMILES: CNCc1ccc(-c2cc(-c3nc(-c4ccc(S(=O)(=O)C(C)C)cc4)cnc3N)on2)cc1 + COc1cc2c(cc1O)CCNC21CSC2c3c(OC(C)=O)c(C)c4c(c3C(COC1=O)N1C(O)C3Cc5cc(C)c(OC)c(O)c5C(C21)N3C)OCO4
- IC50 (second compound 30 pM): 260 nM
- IC50 (second compound 94.9 pM): 122 nM
- IC50 (second compound 0.0003 µM): < 9.49 nM
- IC50 (second compound 0.000949 µM): < 9.49 nM
- IC50 (second compound 0.003 µM): < 9.49 nM
- viability, T/C [1]: 91.9%
- viability, T/C [2]: 90%
- viability, T/C [3]: 82.8%
- viability, T/C [4]: 45.7%
- viability, T/C [5]: 7.78%
- viability, T/C [6]: 1.72%
- viability, T/C [7]: 85.9%
- viability, T/C [8]: 79.8%
- viability, T/C [9]: 51.1%
- viability, T/C [10]: 34.1%
- viability, T/C [11]: 6.4%
- viability, T/C [12]: 1.3%
- viability, T/C [13]: 47.9%
- viability, T/C [14]: 44.7%
- viability, T/C [15]: 36.5%
- viability, T/C [16]: 23.9%
- viability, T/C [17]: 5.48%
- viability, T/C [18]: 1.1%
- viability, T/C [19]: 3.65%
- viability, T/C [20]: 3.36%
- viability, T/C [21]: 4.65%
- viability, T/C [22]: 1.83%
- viability, T/C [23]: 0.95%
- viability, T/C [24]: 1.89%
- viability, T/C [25]: 1.45%
- viability, T/C [26]: 1.2%
- viability, T/C [27]: 0.99%
- viability, T/C [28]: 1.37%
- viability, T/C [29]: 1.15%
- viability, T/C [30]: 0.13%

SMILES: Cc1sc2c(c1C)C(c1ccc(Cl)cc1)=NC(CC(=O)Nc1ccc(O)cc1)c1nnc(C)n1-2 (stereo not given) + COc1cc2c(cc1O)CCNC21CSC2c3c(OC(C)=O)c(C)c4c(c3C(COC1=O)N1C(O)C3Cc5cc(C)c(OC)c(O)c5C(C21)N3C)OCO4
- IC50 (second compound 30 pM): 78 nM
- IC50 (second compound 94.9 pM): 58.6 nM
- IC50 (second compound 0.0003 µM): < 9.49 nM
- IC50 (second compound 0.000949 µM): < 9.49 nM
- IC50 (second compound 0.003 µM): < 9.49 nM
- viability, T/C [1]: 83.6%
- viability, T/C [2]: 65.8%
- viability, T/C [3]: 48.9%
- viability, T/C [4]: 27.4%
- viability, T/C [5]: 24%
- viability, T/C [6]: 17.5%
- viability, T/C [7]: 79.4%
- viability, T/C [8]: 60.9%
- viability, T/C [9]: 42.3%
- viability, T/C [10]: 27.3%
- viability, T/C [11]: 21.3%
- viability, T/C [12]: 10.5%
- viability, T/C [13]: 38.7%
- viability, T/C [14]: 32.4%
- viability, T/C [15]: 23.7%
- viability, T/C [16]: 13.7%
- viability, T/C [17]: 6.9%
- viability, T/C [18]: 2.06%
- viability, T/C [19]: 8.09%
- viability, T/C [20]: 2.88%
- viability, T/C [21]: 5.43%
- viability, T/C [22]: 1.01%
- viability, T/C [23]: 0.08%
- viability, T/C [24]: 0.14%
- viability, T/C [25]: 1.18%
- viability, T/C [26]: 1.31%
- viability, T/C [27]: 1.36%
- viability, T/C [28]: 1.87%
- viability, T/C [29]: 2.19%
- viability, T/C [30]: 3.69%

SMILES: Cn1ncnc1[C@H]1c2n[nH]c(=O)c3cc(F)cc(c23)N[C@@H]1c1ccc(F)cc1 + COc1cc2c(cc1O)CCNC21CSC2c3c(OC(C)=O)c(C)c4c(c3C(COC1=O)N1C(O)C3Cc5cc(C)c(OC)c(O)c5C(C21)N3C)OCO4
- IC50 (second compound 30 pM): 329 nM
- IC50 (second compound 94.9 pM): 155 nM
- IC50 (second compound 0.0003 µM): < 9.49 nM
- IC50 (second compound 0.000949 µM): < 9.49 nM
- IC50 (second compound 0.003 µM): < 9.49 nM
- viability, T/C [1]: 92.8%
- viability, T/C [2]: 79.3%
- viability, T/C [3]: 67.9%
- viability, T/C [4]: 54.9%
- viability, T/C [5]: 29.8%
- viability, T/C [6]: 6.51%
- viability, T/C [7]: 67.8%
- viability, T/C [8]: 70.4%
- viability, T/C [9]: 52.8%
- viability, T/C [10]: 42.1%
- viability, T/C [11]: 24%
- viability, T/C [12]: 6.18%
- viability, T/C [13]: 33.9%
- viability, T/C [14]: 29.3%
- viability, T/C [15]: 23.9%
- viability, T/C [16]: 19.7%
- viability, T/C [17]: 8.26%
- viability, T/C [18]: 4.82%
- viability, T/C [19]: 3.64%
- viability, T/C [20]: 3.04%
- viability, T/C [21]: 2.49%
- viability, T/C [22]: 3.23%
- viability, T/C [23]: 1.4%
- viability, T/C [24]: 0.45%
- viability, T/C [25]: 1.48%
- viability, T/C [26]: 1.15%
- viability, T/C [27]: 1.53%
- viability, T/C [28]: 2.52%
- viability, T/C [29]: 1.19%
- viability, T/C [30]: 2.91%
